Assay results reported in ChEMBL document CHEMBL5528067, “From Synergy to Monotherapy: Discovery of Novel 2,4,6-Trisubstituted Triazine Hydrazone Derivatives with Potent Antifungal Potency In Vitro and In Vivo” (J Med Chem, 2024).
≈ marks a conversion by molar mass, not a printed value. Calls of active or inactive are those of the source. The rule behind the calls is not given here.

Columns and labels:
Candida albicans [1] = test: Antifungal activity against FCZ-resistant Candida albicans SC5314 assessed as growth inhibition measured after 48 hrs incubation by CLSI based micro-dilution broth method; format: functional
Candida albicans [2] = test: Antifungal activity against FCZ-resistant Candida albicans 10231 assessed as growth inhibition measured after 48 hrs incubation by CLSI based micro-dilution broth method; format: functional
Cryptococcus neoformans = test: Antifungal activity against Cryptococcus neoformans 32609 assessed as growth inhibition measured after 48 hrs incubation by CLSI based micro-dilution broth method; format: functional
Candida parapsilosis = test: Antifungal activity against Candida parapsilosis 22019 assessed as growth inhibition measured after 48 hrs incubation by CLSI based micro-dilution broth method; format: functional; details: Lodderomyces parapsilosis
Pichia kudriavzevii = test: Antifungal activity against FCZ-resistant Candida krusei 4996 assessed as growth inhibition at 4 microg/ml measured at 24 hrs incubation by time growth assay; format: functional, organism-based; details: dose 4.0 µg/ml
Candida albicans [3] = test: Filamentation inhibitory effect in Candida albicans SC5314 assessed as inhibition of hyphal formation using hyphal-inducing RPMI 1640 medium at 2 to 8 microg/ml measured after 3 hrs by inverted imaging microscopy; format: functional, organism-based; details: dose 2-8 µg/ml
Candida albicans [4] = test: Antibiofilm activity against Candida albicans SC5314 assessed as inhibition of biofilm formation at 32 microg/ml incubated for 24 hrs by XTT/menadione reduction assay relative to control; format: functional; set-up: scale not given: the % may be the effect or the level left; details: dose 32 µg/ml
Candida albicans [5] = test: Suppression of ALS1 gene expression in Candida albicans SC5314 at 4 to 8 microg/ml by real time RT-PCR analysis; format: functional; details: dose 4-8 µg/ml
Candida albicans [6] = test: Upregulation of BCR1 gene expression in Candida albicans SC5314 assessed as fold increase at 4 microg/ml by real time RT-PCR analysis relative to control; format: functional; details: dose 4.0 µg/ml
Candida albicans [7] = test: Effect on sterol biosynthesis in Candida albicans SC5314 assessed as sterol component and content at 4 microg/ml measured after 8 hrs by GC-MS analysis; format: functional, organism-based; details: dose 4.0 µg/ml
Candida albicans [8] = test: Induction of cell wall component change in Candida albicans SC5314 assessed as swollen inner beta glucan layer at 4 microg/ml measured after 12 hrs by transmission electron microscopy; format: functional, organism-based; details: dose 4.0 µg/ml
[9] = Cytotoxicity against human HUVEC cells assessed as cell viability measured after 24 hrs by CCK-8 assay; format: toxicity, cell-based
[10] = Cytotoxicity against human HUVEC cells assessed as cell viability at 16 microg/ml measured after 24 hrs by CCK-8 assay relative to control; format: toxicity, cell-based; details: at 16 µg/mL, read-out: Activity
[11] = Hemolytic activity in rabbit Red blood cell assessed as hemolysis rate at 64 microg/ml incubated for 1 hr; format: toxicity, cell-based, Oryctolagus cuniculus, Erythrocyte; details: red blood cells, at 64 µg/mL, read-out: Activity
[12] = Metabolic stability in mouse liver microsomes assessed as half life measured upto 60 mins by LC-MS/MS analysis; format: ADME, Microsome
[13] = Metabolic stability in mouse liver microsomes assessed as intrinsic clearance measured per mg of protein upto 60 mins by LC-MS/MS analysis; format: ADME, Microsome; details: read-out: CLH
[14] = Volume of distribution at steady state in Sprague-Dawley rat at 2 mg/kg, iv measured upto 24 hrs by LC-MS/MS analysis; format: ADME, organism-based; details: in vivo, read-out: Vdss
[15] = Clearance in Sprague-Dawley rat at 2 mg/kg, iv measured upto 24 hrs by LC-MS/MS analysis; format: ADME, organism-based; details: in vivo
[16] = AUC (0 to infinity) in Sprague-Dawley rat at 2 mg/kg, iv measured upto 24 hrs by LC-MS/MS analysis; format: ADME, organism-based; details: in vivo
[17] = MRT (0 to t) in Sprague-Dawley rat at 2 mg/kg, iv measured upto 24 hrs by LC-MS/MS analysis; format: ADME, organism-based; details: in vivo

O=[N+]([O-])c1ccc(O)c(/C=N/Nc2nc(NCc3ccc(F)cc3)nc(NCc3ccc(F)cc3)n2)c1
MIC80 (Candida albicans [1]): 4 µg/mL (≈ 7.9 µM) | MIC80 (Candida albicans [2]): 16 µg/mL (≈ 31.6 µM) | MIC80 (Cryptococcus neoformans): 1 µg/mL (≈ 1.97 µM) | MIC80 (Candida parapsilosis): 2 µg/mL (≈ 3.95 µM) | Activity (Pichia kudriavzevii): Active | Activity (Candida albicans [3]): Active | Activity (Candida albicans [4]): 70% | Activity (Candida albicans [5]): Active | fold change (FC) (Candida albicans [6]): 1.9 | Activity (Candida albicans [7]): inactive | Activity (Candida albicans [8]): Active | IC50 at 24 h [9]: 41.4 µg/mL (≈ 81.7 µM) | viability at 24 h, 16 microg/ml [10]: 75.5% | hemolysis at 1 h, 64 microg/ml [11]: 4.92% | half-life [12]: 55.8 min | microsomal CLint [13]: 24.9 µL/min/mg | Vd [14]: 1.08 L/kg | clearance [15]: 22.9 mL/min/kg | AUC(0-inf) [16]: 1470 ng·h/mL | MRT last at 24 h [17]: 45 min
